Where two headings read alike, the source gives them in different places. Each block holds one compound with its values, some of them ahead of it.
System: HIF-1-mediated transcription
Assay: HIF-1-mediated transcription under hypoxia, LN229-HRE-Lux luciferase reporter assay
Format: cell-based, human
Details: for IC50: LN229-HRE-Lux cells, hypoxia (1% O2)
Experimental: The synthesized analogues were evaluated for their potential to inhibit HIF-1-mediated transcription under hypoxia (1% O2) using a human glioma cell line LN229-HRE-Lux, which stably expresses a hypoxia-responsive luciferase reporter gene (Table 1-9). […] The compounds were tested in single (n=1) or multiple (n>1) independent experiments each carried out in quadruplicate.
LN229-HRE-luciferase human glioblastoma cells were used to perform the assay. […] 48-well plates were seeded with 3.10^4 cells per well and incubated under normoxic conditions for 24 h. Cells were then pre-treated with different concentrations of KCN-1 or its analogues for 1 h and then transferred to hypoxic conditions. After 24 h, media was aspirated, cells were lysed and reporter activity was measured in the lysate using Luciferase Assay System (Promega, Madison, Wis.) with 20/20^n Luminometer (Promega).

[1] = Homo sapiens, 24 h, Table 3, 24 h, read-out: IC50
[2] = Homo sapiens, 24 h, 24 h, read-out: IC50
[3] = Homo sapiens, 24 h, Table 4, 24 h, read-out: IC50
[4] = Homo sapiens, 24 h, Table 5, 24 h, read-out: IC50
[5] = Homo sapiens, 24 h, Table 6, 24 h, read-out: IC50
[6] = Homo sapiens, 24 h, Table 7, 24 h, results from single runs, read-out: IC50
[7] = Homo sapiens, 24 h, Table 8, 24 h, results from single runs, read-out: IC50

SMILES: Cc1cc(C)cc(S(=O)(=O)N(Cc2ccc3c(c2)C=CC(C)(C)O3)c2ccccc2)c1 [Compound 5k, N-((2,2-Dimethyl-2H-chromen-6-yl)methyl)-3,5-dimethyl-N-phenylbenzenesulfonamide]
IC50 [1]: 500 nM | IC50 [2]: 600 nM

SMILES: CC1(C)C=Cc2cc(CN(c3ccccc3)S(=O)(=O)c3cc(Cl)ccc3Cl)ccc2O1 [Compound 5l, 2,5-Dichloro-N-((2,2-dimethyl-2H-chromen-6-yl)methyl)-N-phenylbenzenesulfonamide]
IC50 [1]: 2100 nM

SMILES: COc1ccc(S(=O)(=O)N(Cc2cnc3ccccc3c2)c2ccccc2)cc1OC [Compound 13, 3,4-Dimethoxy-N-phenyl-N-(quinolin-3-ylmethyl)benzenesulfonamide]
IC50 [3]: 1300 nM | IC50 [2]: 3500 nM

SMILES: COc1ccc(S(=O)(=O)N(Cc2ccc3c(c2)CC(C)(C)O3)c2ccccc2)cc1OC [Compound 16a, N-((2,2-Dimethyl-2,3-dihydrobenzofuran-5-yl)methyl)-3,4-dimethoxy-N-phenylbenzenesulfonamide]
IC50 [4]: 500 nM

SMILES: CCCCN(Cc1ccc2c(c1)CC(C)(C)O2)S(=O)(=O)c1ccc(OC)c(OC)c1 [Compound 16d, N-Butyl-N-((2,2-dimethyl-2,3-dihydrobenzofuran-5-yl)methyl)-3,4-dimethoxybenzenesulfonamide]
IC50 [4]: 600 nM

SMILES: COc1ccc(S(=O)(=O)N(Cc2ccc3c(c2)CC(C)(C)O3)C2CCCCC2)cc1OC [Compound 16e, N-Cyclohexyl-N-((2,2-dimethyl-2,3-dihydrobenzofuran-5-yl)methyl)-3,4-dimethoxybenzenesulfonamide]
IC50 (Homo sapiens, 24 h, Table 5): 8200 nM | IC50 (Homo sapiens, 24 h): 8200 nM

SMILES: COc1ccc(S(=O)(=O)N(Cc2ccc3c(c2)CC(C)(C)O3)C2CCCC2)cc1OC [Compound 16f, N-Cyclopentyl-N-((2,2-dimethyl-2,3-dihydrobenzofuran-5-yl)methyl)-3,4-dimethoxybenzenesulfonamide]
IC50 [4]: 400 nM | IC50 [2]: 400 nM

SMILES: COc1ccc(S(=O)(=O)N(Cc2cnc3c(c2)C=CC(C)(C)O3)C2CCCCC2)cc1OC [Compound 20b, N-Cyclohexyl-N-((2,2-dimethyl-2H-pyrano[2,3-b]pyridin-6-yl)methyl)-3,4-dimethoxybenzenesulfonamide]
IC50 [5]: > 25000 nM

SMILES: COc1ccc(N(Cc2ccc3c(n2)C=CC(C)(C)O3)S(=O)(=O)c2ccc(OC)c(OC)c2)cc1OC [Compound 26c, N-(3,4-Dimethoxyphenyl)-N-((2,2-dimethyl-2H-pyrano[3,2-b]pyridin-6-yl)methyl)-3,4-dimethoxybenzenesulfonamide]
IC50 [6]: > 25000 nM

SMILES: COc1ccc(S(=O)(=O)N(Cc2ccc3c(n2)C=CC(C)(C)O3)C2CCCCC2)cc1OC [Compound 26e, N-Cyclohexyl-N-((2,2-dimethyl-2H-pyrano[3,2-b]pyridin-6-yl)methyl)-3,4-dimethoxybenzenesulfonamide]
IC50 [6]: 800 nM

SMILES: CC1(C)C=Cc2nc(CN(c3ccccc3)S(=O)(=O)C3CCCCC3)ccc2O1 [Compound 26k, N-((2,2-Dimethyl-2H-pyrano[3,2-b]pyridin-6-yl)methyl)-N-phenylcyclohexanesulfonamide]
IC50 (Homo sapiens, 24 h, Table 8, results from single runs): 400 nM

SMILES: CC1(C)C=Cc2nc(CN(c3ccccc3)S(=O)(=O)C3CC3)ccc2O1 [Compound 26m, N-((2,2-Dimethyl-2H-pyrano[3,2-b]pyridin-6-yl)methyl)-N-phenylcyclopropanesulfonamide]
IC50 [7]: > 25000 nM

Second part, led by results:

IC50 [1]: 600 nM
SMILES: COc1ccc(S(=O)(=O)N(Cc2ccc3c(c2)C=CC(C)(C)O3)c2ccccc2)cc1 [Compound 5j, N-((2,2-Dimethyl-2H-chromen-6-yl)methyl)-4-methoxy-N-phenylbenzenesulfonamide]

IC50 [1]: > 25000 nM
SMILES: CC1(C)C=Cc2cc(CN(c3ccccc3)S(=O)(=O)c3ccc(Br)cc3OC(F)(F)F)ccc2O1 [Compound 5m, 4,4-Bromo-N-((2,2-dimethyl-2H-chromen-6-yl)methyl)-N-phenyl-2-(trifluoromethoxy)benzenesulfonamide]

IC50 [3]: 3100 nM | IC50 [2]: 2200 nM
SMILES: CCC1(C)C=Cc2cc(CN(c3ccccc3)S(=O)(=O)c3ccc(OC)c(OC)c3)ccc2O1 (stereo not shown) [Compound 10, N-((2-Ethyl-2-methyl-2H-chromen-6-yl)methyl)-3,4-dimethoxy-N-phenylbenzenesulfonamide]

IC50 [4]: 9100 nM | IC50 [2]: 9100 nM
SMILES: COc1ccc(S(=O)(=O)N(Cc2ccc3c(c2)CC(C)(C)O3)C2CCCCCC2)cc1OC [Compound 16b, N-Cycloheptyl-N-((2,2-dimethyl-2,3-dihydrobenzofuran-5-yl)methyl)-3,4dimethoxybenzenesulfonamide]

IC50 [4]: 1500 nM
SMILES: COc1ccc(S(=O)(=O)N(Cc2ccc3c(c2)CC(C)(C)O3)C(C)C)cc1OC [Compound 16c, N-((2,2-dimethyl-2,3-dihydrobenzofuran-5-yl)methyl)-N-isopropyl-3,4-dimethoxybenzenesulfonamide]

IC50 [5]: 2500 nM | IC50 [2]: 2500 nM
SMILES: COc1ccc(S(=O)(=O)N(Cc2cnc3c(c2)C=CC(C)(C)O3)c2ccccc2)cc1OC [Compound 20a, N-((2,2-Dimethyl-2H-pyrano[2,3-b]pyridin-6-yl)methyl)-3,4-dimethoxy-N-phenylbenzenesulfonamide]

IC50 [6]: 1300 nM | IC50 (Homo sapiens, unit inferred, read-out: IC50): 1300 nM
SMILES: COc1ccc(S(=O)(=O)N(Cc2ccc3c(n2)C=CC(C)(C)O3)c2ccccc2)cc1OC [Compound 26a, N-((2,2-dimethyl-2H-pyrano[3,2-b]pyridin-6-yl)methyl)-3,4-dimethoxy-N-phenylbenzenesulfonamide]

IC50 [6]: 900 nM
SMILES: CCCCN(Cc1ccc2c(n1)C=CC(C)(C)O2)S(=O)(=O)c1ccc(OC)c(OC)c1 [Compound 26b, N-Butyl-N-((2,2-dimethyl-2H-pyrano[3,2-b]pyridin-6-yl)methyl)-3,4-dimethoxybenzenesulfonamide]

IC50 [6]: 600 nM
SMILES: COc1ccc(S(=O)(=O)N(Cc2ccc3c(n2)C=CC(C)(C)O3)C2CCCC2)cc1OC [Compound 26d, N-Cyclopentyl-N-((2,2-dimethyl-2H-pyrano[3,2-b]pyridin-6-yl)methyl)-3,4-dimethoxybenzenesulfonamide]

IC50 [6]: 6600 nM
SMILES: COc1ccc(S(=O)(=O)N(Cc2ccc3c(n2)C=CC(C)(C)O3)C2CCCCCC2)cc1OC [Compound 26g, N-Cycloheptyl-N-((2,2-dimethyl-2H-pyrano[3,2-b]pyridin-6-yl)methyl)-3,4-dimethoxybenzenesulfonamide]

IC50 [6]: 700 nM
SMILES: COc1ccc(S(=O)(=O)N(Cc2ccc3c(n2)C=CC(C)(C)O3)C2CCCCCCC2)cc1OC [Compound 26h, N-Cyclooctyl-N-((2,2-dimethyl-2H-pyrano[3,2-b]pyridin-6-yl)methyl)-3,4-dimethoxybenzenesulfonamide]

IC50 [6]: 250 nM | IC50 [2]: 250 nM | IC50 (24 h, read-out: IC50): 400 nM
SMILES: COc1ccc(S(=O)(=O)N(Cc2ccc3c(n2)C=CC(C)(C)O3)C2CCC2)cc1OC [Compound 26i, N-Cyclobutyl-N-((2,2-dimethyl-2H-pyrano[3,2-b]pyridin-6-yl)methyl)-3,4-dimethoxybenzenesulfonamide]
fold higher potency than KCN-1 (IC50 compared with KCN-1, LN229-HRE-Lux reporter assay): ~3 fold

IC50 [6]: 5700 nM
SMILES: COc1ccc(S(=O)(=O)N(Cc2ccc3c(n2)C=CC(C)(C)O3)c2ccc(F)cc2)cc1OC [Compound 26j, N-((2,2-dimethyl-2H-pyrano[3,2-b]pyridin-6-yl)methyl)-N-(4-fluorophenyl)-3,4-dimethoxybenzenesulfonamide]

IC50 [7]: 13400 nM
SMILES: CC(C)S(=O)(=O)N(Cc1ccc2c(n1)C=CC(C)(C)O2)c1ccccc1 [Compound 26l, N-((2,2-Dimethyl-2H-pyrano[3,2-b]pyridin-6-yl)methyl)-N-phenylpropane-2-sulfonamide]

Source: patent US9062072B2, “Inhibitors of HIF and angiogenesis” (Emory University, priority 2010, dated 2015)
